Data from PMC11769286, “Nanoformulation of Polymyxin E Through Complex Coacervation: A Pharmacokinetic Analysis” (Pharmaceutics, 2025).
In brackets after ≈: the same amount, converted by molar mass. Positions of bridges follow the written chain, without caps; N, C: chain ends. Non-standard residues stand in square brackets, D forms with d. Residues, ends and D or L forms follow the SMILES beside them. *: point of attachment. Heptanoyl(5-Me) = CCC(C)CCCC(=O)*; Dab = NCC[C@H](N)C(=O)O

Assays:
Acinetobacter baumannii = assay type: cell-based
Text: (§1) In line with the 2021 edition of the United States Clinical and Laboratory Standards Institute (CLSI) guidelines (https://clsi.org/), we employed the broth microdilution method to determine the MIC of the compounds against clinical Gram-negative bacilli. We tested 23 strains of Escherichia coli, including 12 carbapenem-sensitive and 11 drug-resistant strains, and 22 strains of Klebsiella pneumoniae, including 12 carbapenem-sensitive and 10 drug-resistant strains. Additionally, we assessed 20 strains of Acinetobacter baumannii, again including 10 carbapenem-sensitive and 10 drug-resistant strains, and 21 strains of Pseudomonas aeruginosa. Quality control strains used were Escherichia coli ATCC 25922 and Pseudomonas aeruginosa ATCC 27853 [20]. For the preparation of antimicrobial agents, we dissolved seven batches of the test drug in 3 mL of water and subsequently diluted it to a concentration of 500 mg/L. The control drug was prepared according to CLSI requirements. The antibacterial solutions were tested over a concentration range spanning from 0.015 mg/L to 32 mg/L. We utilized cation-adjusted Mueller–Hinton broth (CAMHB) from BD Company, with lot number 9324795.
(§2) Regarding bacterial inoculation, we selected fresh, pure bacterial colonies from Columbia blood agar using the direct colony suspension method, resulting in a turbidity of 0.5 McFarland units. This suspension was then appropriately diluted, yielding a final bacterial concentration of 10^5 CFU/mL. Culturing conditions involved incubation in ambient air at 35 ± 2 °C for a duration of 16–20 h. Results were interpreted in accordance with the European EUCAST breakpoint criteria, where PME sensitivity was defined as ≤2 mg/L and resistance as ≥4 mg/L. Criteria for assessing other tested drugs were provided by the party commissioning the study. The MIC value represented the minimum drug concentration necessary to inhibit bacterial growth. Data analysis was performed using WHONET 5.6 software for statistical evaluation of the drug susceptibility test results.

Klebsiella pneumoniae = assay type: cell-based
Text: as §1, §2

CD-1 mice = test: Determination of maximum tolerated dose (MTD); assay type: in vivo; conditions: male CD-1 mice, n = 3, tail vein, BID (q8h)
Procedure: CD-1 mice, male, 7–8 weeks old, weighing 25–30 g, were purchased from Shanghai Lingchang Laboratory Animal Co. The mice were grouped into n = 3, and different doses of PME were injected into the tail vein of mice via BID (q8h). HA2 prescription (HA2-2.6, HA2-2 and HA2-1.5) and SOP prescription (SOP-2.6, SOP-2 and SOP-1.5) were used for MTD examination.

[1] = parameters: species or system SD rats; conditions: rat, in vivo, iv
[2] = tested on: A. Baumannii ATCC BAA-1605; conditions: 8 mpk BID q12h, tail vein; 24 h after infection
Procedure: CD-1 mice (SPF grade, female, 7 weeks old, 27–29 g) were provided by Zhejiang Weitong Lihua Laboratory Animal Technology Co., Ltd. A. Baumannii ATCC BAA-1605 was provided by Nantong Wuxi Apptec Medical Technology Co., Ltd. (Nanjing, China). Experimental animals were admitted to Wuxi AppTec BSL-2 animal facility and subjected to an adaptation period of at least 3 to 4 days. Immunosuppressed mice with neutrophil deficiency were prepared by intraperitoneal injection of cyclophosphamide (150 mg/kg at day -4; 100 mg/kg at day -1). On day 0, the infected bacterial solution was inoculated by intramuscular injection, and 0.1 mL of the bacterial solution was inoculated into the right thigh of each mouse. At 2 h and 24 h after infection, the PME formulations were administered by tail vein according to the experimental protocol. Animals in the blank group were euthanized 2 h after infection. The right thighs of those mice were collected and homogenized. The diluent was cultured overnight and CFUs were counted the next day. Animals in the negative control group and other treatment groups were euthanized 24 h after infection. […] The diluent was cultured overnight and CFUs were counted the next day. […]
The dosages were calculated based on the weight of the mice, and different dosage levels were achieved by adjusting the drug volume accordingly.

[3] = rat, in vivo
in vivo = conditions: SD, rat

CCC(C)CCCC(=O)N[C@@H](CCN)C(=O)N[C@H](C(=O)N[C@@H](CCN)C(=O)N[C@H]1CCNC(=O)[C@H]([C@@H](C)O)NC(=O)[C@H](CCN)NC(=O)[C@H](CCN)NC(=O)[C@H](CC(C)C)NC(=O)[C@@H](CC(C)C)NC(=O)[C@H](CCN)NC1=O)[C@@H](C)O (stereo partly drawn) ({Heptanoyl(5-Me)}-[Dab]T[Dab][Dab][Dab][dL]L[Dab][Dab]T; lactam 4-C) gave an MIC50 (Acinetobacter baumannii) of 0.5 µg/mL (≈ 0.433 µM), an MIC range (Acinetobacter baumannii) of 0.5 to 1 µg/mL and an MIC50 (Klebsiella pneumoniae) of 0.5 µg/mL (≈ 0.433 µM). For the same compound, the “MTD / tolerated dose” value (CD-1 mice) was 10 mpk, the gastric mucosal bleeding [1] was “showed gastric mucosal bleeding” and the “change of bacterial levels” value [2] was “did not increase bacterial levels”. The “intersection point between distribution phase and elimination phase” value [3] was 0.5 h, the AUC(0-inf) (in vivo) was 12300 ± 2120 ng·h/mL and the Cmax (in vivo) was 10300 ± 1780 ng/mL. For the same compound, the MRT (in vivo) was 1.63 ± 0.15 h, the Tmax (in vivo) was 4.8 min and the Vd (in vivo) was 0.404 ± 0.0545 L/kg. For the same compound, the clearance (in vivo) was 4.16 ± 0.78 mL/min/kg and the half-life (in vivo) was 1.33 ± 0.05 h.
